Reference: ChEMBL document CHEMBL1154774, “Neglected tropical diseases: multi-target-directed ligands in the search for novel lead candidates against Trypanosoma and Leishmania” (J Med Chem, 2009)

Key:
Trypanosoma cruzi = assay: Antitrypanosomal activity against Trypanosoma cruzi Tulahuen 2; assay type: functional, organism-based
[1] = Selectivity index, ratio of cytotoxicity against mammalian cells to IC50 for Trypanosoma cruzi Tulahuen 2; assay type: toxicity, cell-based; conditions: read-out: Selectivity Index
Trypanothione reductase = Trypanothione reductase (Trypanosoma cruzi, UniProt P28593); assay: Inhibition of Trypanosoma cruzi trypanothione reductase
Leishmania mexicana = assay: Leishmanistatic activity against Leishmania mexicana; assay type: functional
[2] = Selectivity index, ratio of cytotoxicity against mammalian cells to IC50 for Trypanosoma brucei rhodesiense; assay type: toxicity, cell-based; conditions: read-out: Selectivity Index

Chain of Trypanothione reductase (P28593 whole entry): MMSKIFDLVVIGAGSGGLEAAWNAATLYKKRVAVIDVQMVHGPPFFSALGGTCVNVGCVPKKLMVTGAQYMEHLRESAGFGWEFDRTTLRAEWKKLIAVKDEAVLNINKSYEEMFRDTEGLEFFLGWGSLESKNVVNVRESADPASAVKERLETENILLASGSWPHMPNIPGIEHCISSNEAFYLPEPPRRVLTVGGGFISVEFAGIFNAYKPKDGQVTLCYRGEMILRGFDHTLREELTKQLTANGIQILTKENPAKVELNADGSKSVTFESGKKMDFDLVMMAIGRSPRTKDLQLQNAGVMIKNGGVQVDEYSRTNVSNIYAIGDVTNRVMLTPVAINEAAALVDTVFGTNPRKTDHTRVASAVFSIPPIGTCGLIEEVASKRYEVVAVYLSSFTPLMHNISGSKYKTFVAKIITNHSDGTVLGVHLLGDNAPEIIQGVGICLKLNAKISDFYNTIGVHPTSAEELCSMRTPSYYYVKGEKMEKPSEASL

Compound: NC(=S)N/N=C/c1ccc(OCc2ccc3no[n+]([O-])c3c2)cc1
- IC50 (Trypanosoma cruzi): 15 µM
- selectivity ratio [1]: 27
- IC50 (Trypanothione reductase): 43 µM

Compound: C/C(=N/Nc1ccccn1)[C@H]1CC[C@H]2[C@@H]3CC[C@H]4C[C@@H](O)CC[C@]4(C)[C@H]3CC[C@]12C
- growth inhibition (GI) (Leishmania mexicana): 39%

Compound: O=C1C=C(Oc2ccccc2)C(=O)c2ccccc21
- selectivity ratio [2]: 74
